Measurements: paper PMC5666424, “Marine-Derived 2-Aminoimidazolone Alkaloids. Leucettamine B-Related Polyandrocarpamines Inhibit Mammalian and Protozoan DYRK & CLK Kinases” (Marine Drugs, 2017)

Legend:
Assay in all cases: KinomeScan
Assay type in all cases: binding
Details in all cases: 1 μM
NEK6 = target: T1, NEK6 (Homo sapiens, UniProt Q9HC98)
T1 construct: purchased DiscoverX (KINOMEscan)

FGFR2 = target: T2, FGFR2 (Homo sapiens, UniProt P21802)
T2 construct: purchased DiscoverX (KINOMEscan)

FGFR3 = target: T3, FGFR3 (Homo sapiens, UniProt P22607)
T3 construct: purchased DiscoverX (KINOMEscan)

LOK = target: T4, LOK (Homo sapiens, UniProt O94804)
T4 construct: purchased DiscoverX (KINOMEscan)
T4 sequence (O94804 whole entry): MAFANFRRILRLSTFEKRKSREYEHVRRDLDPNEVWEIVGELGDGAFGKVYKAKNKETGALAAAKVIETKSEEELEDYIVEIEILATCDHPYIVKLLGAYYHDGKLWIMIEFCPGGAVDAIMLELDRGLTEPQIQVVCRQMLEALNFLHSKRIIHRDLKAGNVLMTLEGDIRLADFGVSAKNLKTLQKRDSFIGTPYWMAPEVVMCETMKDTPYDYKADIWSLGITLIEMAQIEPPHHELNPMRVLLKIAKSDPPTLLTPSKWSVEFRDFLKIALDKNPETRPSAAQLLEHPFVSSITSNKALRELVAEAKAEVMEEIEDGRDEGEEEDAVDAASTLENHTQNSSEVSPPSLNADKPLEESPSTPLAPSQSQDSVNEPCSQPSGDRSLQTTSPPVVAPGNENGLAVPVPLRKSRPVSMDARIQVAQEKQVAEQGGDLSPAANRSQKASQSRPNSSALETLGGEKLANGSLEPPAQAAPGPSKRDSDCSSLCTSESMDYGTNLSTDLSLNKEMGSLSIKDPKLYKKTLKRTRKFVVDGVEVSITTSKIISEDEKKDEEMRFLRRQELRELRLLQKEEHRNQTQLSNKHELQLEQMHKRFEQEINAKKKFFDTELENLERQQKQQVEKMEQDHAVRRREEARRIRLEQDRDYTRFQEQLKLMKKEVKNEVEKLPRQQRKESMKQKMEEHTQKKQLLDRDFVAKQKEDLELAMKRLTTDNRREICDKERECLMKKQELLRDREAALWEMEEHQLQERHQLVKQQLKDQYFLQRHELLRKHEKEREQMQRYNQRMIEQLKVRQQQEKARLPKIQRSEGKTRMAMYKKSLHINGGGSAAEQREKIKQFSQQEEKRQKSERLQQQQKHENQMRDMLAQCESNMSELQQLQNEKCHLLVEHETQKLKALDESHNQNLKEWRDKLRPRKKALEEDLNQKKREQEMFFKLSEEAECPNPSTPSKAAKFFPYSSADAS

MAP4K3 = target: T5, MAP4K3 (Homo sapiens, UniProt Q8IVH8)
T5 construct: purchased DiscoverX (KINOMEscan)

BTK = target: T6, BTK (Homo sapiens, UniProt Q06187)
T6 construct: purchased DiscoverX (KINOMEscan)

HUNK = target: T7, HUNK (Homo sapiens, UniProt P57058)
T7 construct: purchased DiscoverX (KINOMEscan)
T7 sequence (P57058 whole entry): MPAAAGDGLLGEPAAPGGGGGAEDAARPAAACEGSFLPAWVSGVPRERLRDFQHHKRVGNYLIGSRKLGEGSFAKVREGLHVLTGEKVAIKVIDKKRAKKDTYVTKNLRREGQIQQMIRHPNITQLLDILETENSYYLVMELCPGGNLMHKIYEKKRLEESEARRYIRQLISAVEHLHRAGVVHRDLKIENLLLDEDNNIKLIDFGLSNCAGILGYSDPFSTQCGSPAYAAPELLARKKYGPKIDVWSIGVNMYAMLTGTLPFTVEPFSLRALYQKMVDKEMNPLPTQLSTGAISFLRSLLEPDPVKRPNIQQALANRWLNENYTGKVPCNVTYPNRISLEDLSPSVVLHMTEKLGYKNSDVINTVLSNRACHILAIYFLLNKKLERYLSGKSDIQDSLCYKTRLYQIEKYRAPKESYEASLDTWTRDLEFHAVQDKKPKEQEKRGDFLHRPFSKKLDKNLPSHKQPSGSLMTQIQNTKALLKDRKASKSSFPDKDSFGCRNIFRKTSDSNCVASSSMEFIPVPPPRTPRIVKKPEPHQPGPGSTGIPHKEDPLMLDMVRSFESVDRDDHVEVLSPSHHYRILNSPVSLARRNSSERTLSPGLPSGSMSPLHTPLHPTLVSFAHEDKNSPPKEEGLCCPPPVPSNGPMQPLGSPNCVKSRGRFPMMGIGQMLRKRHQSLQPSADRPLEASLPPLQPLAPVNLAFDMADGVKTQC

MKK7 = target: T8, MKK7 (Homo sapiens, UniProt O14733)
T8 construct: purchased DiscoverX (KINOMEscan)

ERBB2 = target: T9, ERBB2 (Homo sapiens, UniProt P04626)
T9 construct: purchased DiscoverX (KINOMEscan)

NEK7 = target: T10, NEK7 (Homo sapiens, UniProt Q8TDX7)
T10 construct: purchased DiscoverX (KINOMEscan)

FAK = target: T11, FAK (Homo sapiens, UniProt Q05397)
T11 construct: purchased DiscoverX (KINOMEscan)

CAMK2B = target: T12, CAMK2B (Homo sapiens, UniProt Q13554)
T12 construct: purchased DiscoverX (KINOMEscan)
T12 sequence (Q13554 whole entry): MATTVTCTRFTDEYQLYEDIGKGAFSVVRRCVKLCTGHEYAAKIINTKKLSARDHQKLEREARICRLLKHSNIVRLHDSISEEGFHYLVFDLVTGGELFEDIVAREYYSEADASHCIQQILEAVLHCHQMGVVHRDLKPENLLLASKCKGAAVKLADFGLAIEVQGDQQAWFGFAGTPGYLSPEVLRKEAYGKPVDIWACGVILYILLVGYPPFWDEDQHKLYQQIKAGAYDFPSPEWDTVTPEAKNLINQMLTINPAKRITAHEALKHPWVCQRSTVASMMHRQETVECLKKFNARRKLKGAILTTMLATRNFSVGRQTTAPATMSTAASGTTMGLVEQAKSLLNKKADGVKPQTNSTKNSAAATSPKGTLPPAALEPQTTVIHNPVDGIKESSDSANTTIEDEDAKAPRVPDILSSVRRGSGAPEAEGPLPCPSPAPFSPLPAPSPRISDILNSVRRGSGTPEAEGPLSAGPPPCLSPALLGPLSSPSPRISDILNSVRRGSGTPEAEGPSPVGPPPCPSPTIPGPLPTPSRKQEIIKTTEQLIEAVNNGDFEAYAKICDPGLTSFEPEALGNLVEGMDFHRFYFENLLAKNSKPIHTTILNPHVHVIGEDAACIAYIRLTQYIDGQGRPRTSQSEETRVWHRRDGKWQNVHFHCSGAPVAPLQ

ERK3 = target: T13, ERK3 (Homo sapiens, UniProt Q16659)
T13 construct: purchased DiscoverX (KINOMEscan)

MYLK2 = target: T14, MYLK2 (Homo sapiens, UniProt Q9H1R3)
T14 construct: purchased DiscoverX (KINOMEscan)

[1] = target: T15, RPS6KA4 (Kin.Dom.2-C-terminal) (Homo sapiens, UniProt O75676)
T15 construct: Kin.Dom.2-C-terminal; purchased DiscoveRx (KinomeScan, San Diego, CA, USA)
T15 sequence (O75676 411-674 limits assumed): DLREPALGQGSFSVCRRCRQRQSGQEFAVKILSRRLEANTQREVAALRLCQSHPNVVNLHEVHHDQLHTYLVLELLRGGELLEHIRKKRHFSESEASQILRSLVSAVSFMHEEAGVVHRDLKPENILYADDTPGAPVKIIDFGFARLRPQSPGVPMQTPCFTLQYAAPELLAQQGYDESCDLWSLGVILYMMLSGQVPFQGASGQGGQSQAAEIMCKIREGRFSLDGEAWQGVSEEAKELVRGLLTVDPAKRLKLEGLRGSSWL

FLT3(R834Q) = target: T16, FLT3(R834Q) (Homo sapiens, UniProt P36888, R834Q)
T16 construct: purchased DiscoverX (KINOMEscan)

ERK4 = target: T17, ERK4 (Homo sapiens, UniProt P31152)
T17 construct: purchased DiscoverX (KINOMEscan)
T17 sequence (P31152 whole entry): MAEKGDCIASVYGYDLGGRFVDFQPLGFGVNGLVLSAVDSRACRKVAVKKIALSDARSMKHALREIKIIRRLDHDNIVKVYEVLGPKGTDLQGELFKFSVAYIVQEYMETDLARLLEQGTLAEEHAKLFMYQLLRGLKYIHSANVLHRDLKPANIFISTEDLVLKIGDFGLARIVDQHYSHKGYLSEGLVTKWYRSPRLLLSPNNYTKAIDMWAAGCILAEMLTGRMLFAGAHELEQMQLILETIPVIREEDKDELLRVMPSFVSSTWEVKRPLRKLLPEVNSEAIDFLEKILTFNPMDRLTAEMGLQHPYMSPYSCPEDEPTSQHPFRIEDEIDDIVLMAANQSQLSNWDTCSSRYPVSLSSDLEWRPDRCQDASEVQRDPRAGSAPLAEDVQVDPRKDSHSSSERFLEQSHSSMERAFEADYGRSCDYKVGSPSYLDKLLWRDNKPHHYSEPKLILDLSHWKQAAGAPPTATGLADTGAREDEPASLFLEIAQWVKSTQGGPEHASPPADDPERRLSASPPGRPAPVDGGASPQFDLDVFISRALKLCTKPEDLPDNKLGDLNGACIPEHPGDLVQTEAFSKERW

EGFR(G719S) = target: T18, EGFR(G719S) (Homo sapiens, UniProt P00533, G719S)
T18 construct: purchased DiscoverX (KINOMEscan)

DRAK2 = target: T19, DRAK2 (Homo sapiens, UniProt O94768)
T19 construct: purchased DiscoverX (KINOMEscan)

VEGFR2 = target: T20, VEGFR2 (Homo sapiens, UniProt P35968)
T20 construct: purchased DiscoverX (KINOMEscan)

CIT = target: T21, CIT (Homo sapiens, UniProt O14578)
T21 construct: purchased DiscoverX (KINOMEscan)

LCK = target: T22, LCK (Homo sapiens, UniProt P06239)
T22 construct: purchased DiscoverX (KINOMEscan)

SNARK = target: T23, SNARK (Homo sapiens, UniProt Q9H093)
T23 construct: purchased DiscoverX (KINOMEscan)

ERK2 = target: T24, ERK2 (Homo sapiens, UniProt P28482)
T24 construct: purchased DiscoverX (KINOMEscan)

CDK4-cyclinD1 = target: T25, CDK4-cyclinD1 (Homo sapiens, UniProt P11802)
T25 construct: purchased DiscoverX (KINOMEscan)

AMPK-alpha1 = target: T26, AMPK-alpha1 (Homo sapiens, UniProt Q13131)
T26 construct: purchased DiscoverX (KINOMEscan)
T26 sequence (Q13131 whole entry): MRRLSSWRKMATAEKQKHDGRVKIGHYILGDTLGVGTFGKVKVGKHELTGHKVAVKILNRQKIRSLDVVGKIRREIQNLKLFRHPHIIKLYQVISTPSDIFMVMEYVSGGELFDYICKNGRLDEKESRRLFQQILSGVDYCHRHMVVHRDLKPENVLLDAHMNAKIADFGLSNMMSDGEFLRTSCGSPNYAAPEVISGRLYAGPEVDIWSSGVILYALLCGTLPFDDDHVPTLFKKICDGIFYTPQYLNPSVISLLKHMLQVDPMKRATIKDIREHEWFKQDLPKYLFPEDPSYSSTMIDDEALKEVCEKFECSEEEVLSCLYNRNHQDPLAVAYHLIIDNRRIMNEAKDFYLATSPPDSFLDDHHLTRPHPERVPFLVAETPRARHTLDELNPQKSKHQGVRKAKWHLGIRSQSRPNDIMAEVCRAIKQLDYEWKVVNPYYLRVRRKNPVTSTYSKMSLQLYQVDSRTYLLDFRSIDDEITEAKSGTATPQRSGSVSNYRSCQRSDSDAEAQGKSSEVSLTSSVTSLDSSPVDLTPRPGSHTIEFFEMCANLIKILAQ

GAK = target: T27, GAK (Homo sapiens, UniProt O14976)
T27 construct: purchased DiscoverX (KINOMEscan)

p38-alpha = target: T28, p38-alpha (Homo sapiens, UniProt Q16539)
T28 construct: purchased DiscoverX (KINOMEscan)

TESK1 = target: T29, TESK1 (Homo sapiens, UniProt Q15569)
T29 construct: purchased DiscoverX (KINOMEscan)

[2] = target: T30, ABL1(Q252H)-nonphosphorylated (Homo sapiens, UniProt P00519, Q252H)
T30 construct: purchased DiscoverX (KINOMEscan)

EPHA8 = target: T31, EPHA8 (Homo sapiens, UniProt P29322)
T31 construct: purchased DiscoverX (KINOMEscan)

MAST1 = target: T32, MAST1 (Homo sapiens, UniProt Q9Y2H9)
T32 construct: purchased DiscoverX (KINOMEscan)

HPK1 = target: T33, HPK1 (Homo sapiens, UniProt Q92918)
T33 construct: purchased DiscoverX (KINOMEscan)
T33 sequence (Q92918 whole entry): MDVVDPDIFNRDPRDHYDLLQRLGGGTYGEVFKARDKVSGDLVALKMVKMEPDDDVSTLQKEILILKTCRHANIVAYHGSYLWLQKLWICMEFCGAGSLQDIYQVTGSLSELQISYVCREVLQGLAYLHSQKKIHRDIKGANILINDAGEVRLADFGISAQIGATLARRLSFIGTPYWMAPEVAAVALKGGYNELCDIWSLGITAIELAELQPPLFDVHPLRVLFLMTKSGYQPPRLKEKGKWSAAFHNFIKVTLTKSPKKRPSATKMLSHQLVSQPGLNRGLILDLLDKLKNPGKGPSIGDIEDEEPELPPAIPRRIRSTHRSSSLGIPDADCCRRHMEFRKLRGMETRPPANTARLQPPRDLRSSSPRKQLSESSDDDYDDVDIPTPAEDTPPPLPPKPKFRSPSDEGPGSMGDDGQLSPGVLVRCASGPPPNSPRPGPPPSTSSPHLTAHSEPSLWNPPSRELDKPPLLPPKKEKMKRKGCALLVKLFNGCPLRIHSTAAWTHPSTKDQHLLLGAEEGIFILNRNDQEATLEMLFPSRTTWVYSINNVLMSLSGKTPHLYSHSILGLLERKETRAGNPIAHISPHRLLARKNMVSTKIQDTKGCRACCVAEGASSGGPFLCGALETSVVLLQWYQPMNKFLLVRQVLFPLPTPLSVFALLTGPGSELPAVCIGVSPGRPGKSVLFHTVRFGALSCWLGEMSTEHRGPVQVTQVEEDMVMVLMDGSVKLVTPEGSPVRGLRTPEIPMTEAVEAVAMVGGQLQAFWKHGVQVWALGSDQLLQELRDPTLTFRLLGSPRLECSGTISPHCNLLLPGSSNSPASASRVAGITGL

NEK2 = target: T34, NEK2 (Homo sapiens, UniProt P51955)
T34 construct: purchased DiscoverX (KINOMEscan)
T34 sequence (P51955 whole entry): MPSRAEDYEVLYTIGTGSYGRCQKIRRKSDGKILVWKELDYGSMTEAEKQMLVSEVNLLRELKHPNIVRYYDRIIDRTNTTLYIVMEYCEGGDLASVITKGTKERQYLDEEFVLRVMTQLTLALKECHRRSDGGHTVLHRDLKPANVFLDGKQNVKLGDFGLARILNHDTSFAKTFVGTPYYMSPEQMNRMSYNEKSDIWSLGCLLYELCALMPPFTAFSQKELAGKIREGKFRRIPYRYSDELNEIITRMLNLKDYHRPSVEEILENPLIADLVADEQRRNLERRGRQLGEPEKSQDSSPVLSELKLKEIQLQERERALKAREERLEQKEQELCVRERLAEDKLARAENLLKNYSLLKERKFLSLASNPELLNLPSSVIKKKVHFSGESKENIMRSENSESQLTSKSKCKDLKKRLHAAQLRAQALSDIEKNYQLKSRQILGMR

[3] = target: T35, ABL1(F317L)-nonphosphorylated (Homo sapiens, UniProt P00519, F317L)
T35 construct: purchased DiscoverX (KINOMEscan)

HCK = target: T36, HCK (Homo sapiens, UniProt P08631)
T36 construct: purchased DiscoverX (KINOMEscan)

NEK4 = target: T37, NEK4 (Homo sapiens, UniProt P51957)
T37 construct: purchased DiscoverX (KINOMEscan)

Compound: COc1cc(/C=C2\N=C(N)NC2=O)ccc1O [Polyandrocarpamine A]
- Score (NEK6): 100
- Score (FGFR2): 100
- Score (FGFR3): 100
- Score (LOK): 100
- Score (MAP4K3): 78
- Score (BTK): 100
- Score (HUNK): 100
- Score (MKK7): 89
- Score (ERBB2): 100
- Score (NEK7): 100
- Score (FAK): 94
- Score (CAMK2B): 90
- Score (ERK3): 82
- Score (MYLK2): 95
- Score [1]: 22
- Score (FLT3(R834Q)): 100
- Score (ERK4): 100
- Score (EGFR(G719S)): 100
- Score (DRAK2): 51
- Score (VEGFR2): 100
- Score (CIT): 100
- Score (LCK): 100
- Score (SNARK): 100
- Score (ERK2): 100
- Score (CDK4-cyclinD1): 96
- Score (AMPK-alpha1): 100
- Score (GAK): 100
- Score (p38-alpha): 100
- Score (TESK1): 100
- Score [2]: 100
- Score (EPHA8): 100
- Score (MAST1): 100
- Score (HPK1): 100
- Score (NEK2): 100
- Score [3]: 100
- Score (HCK): 100
- Score (NEK4): 100
